Results: BigSolDB 2.1

CC(C)OC(=O)[C@H](C)N[P@](=O)(OC[C@H]1O[C@@H](n2ccc(=O)[nH]c2=O)[C@](C)(F)[C@@H]1O)Oc1ccccc1
solubility (mole fraction)
Details	278.15 K	283.15 K	288.15 K	293.15 K	298.15 K	303.15 K	308.15 K	313.15 K	318.15 K
in acetone	0.0275	0.0343	0.0435	0.0538	0.066	0.0796	0.0951	0.113	0.134
in acetonitrile	0.00484	0.00629	0.00812	0.0101	0.0127	0.0156	0.019	0.0234	0.0286
in cyclohexane	–	6.09e-07	9.4e-07	1.44e-06	2.09e-06	3.05e-06	4.33e-06	6.11e-06	8.66e-06
in ethanol	0.022	0.0274	0.0342	0.0416	0.0505	0.0599	0.0712	0.0842	0.0997
in ethyl acetate	0.00263	0.00362	0.00486	0.00641	0.0084	0.0108	0.0139	0.0178	0.0228
in n-butanol	0.00935	0.0116	0.0144	0.0182	0.0225	0.0278	0.034	0.0413	0.0501
in toluene	4.46e-06	7.43e-06	1.1e-05	1.75e-05	2.67e-05	4.02e-05	6.15e-05	9.44e-05	0.000144
in water	1.18e-05	1.85e-05	2.59e-05	3.65e-05	5.05e-05	7.02e-05	9.6e-05	0.000131	0.00017
